From US20090162413A1 (priority 1998, published 2009)
Like-named read-outs stand apart in the source and are kept apart here.

Experiments:
[1] = Phase 1 single escalating intravenous dose safety and pharmacokinetics (Example 6); assay type: in vivo, human; conditions: for β: elimination rate constant; for tolerability: single IV doses of 100 to 900 μg
Protocol: In the present, first-time-in-man study, the safety and pharmacokinetics of zotarolimus were investigated following intravenous bolus administration of zotarolimus over a 100 to 900 μg dose range. The intravenous bolus dose administration would mimic the most rapid unexpected release of zotarolimus from drug-coated stents in vivo.
This was a Phase 1, single escalating dose, double-blind, randomized, placebo-controlled, single-center study. Sixty (60) adult healthy males were divided into 5 IV dose groups of 100, 300, 500, 700, and 900 μg.
Subjects were randomly assigned to receive a single intravenous dose of zotarolimus or a matching intravenous placebo under fasting conditions, as shown in the dosing scheme shown in Table 9.
Higher doses were administered after evaluating the safety data from the preceding lower dose groups. The treatment groups were separated by at least 7 days. For safety reasons, each treatment group was divided into two cohorts of six subjects and the doses of the two cohorts of a group were separated by at least 1 day.
Doses were administered as IV bolus over 3 minutes, with 8 subjects. Four subjects received zotarolimus and 4 subjects received placebo in each dose group. Blood concentrations of zotarolimus were sampled for 168 hours and measured using LC-MS/MS with a LOQ of 0.20 ng/mL
Seven (7)-mL blood samples were collected by venipuncture into evacuated collection tubes containing edetic acid (EDTA) prior to dosing (0 hour) and at 0.083 (5 min), 0.25, 0.5, 1, 2, 4, 8, 12, 16, 24, 36, 48, 72, 96, 120, 144, and 168 hours after dosing on Study Day 1.
Blood concentrations of zotarolimus were determined using a validated liquid/liquid extraction HPLC tandem mass spectrometric method (LC-MS/MS) (Ji et al., 2004). The lower limit of quantification of zotarolimus was 0.20 ng/mL using 0.3 mL blood sample. All calibration curves had coefficient of determination (r^2) values greater than or equal to 0.9923.
Safety was evaluated based on adverse event, physical examination, vital signs, ECG, injection site and laboratory tests assessments.
Pharmacokinetic parameter values of zotarolimus were estimated using noncompartmental methods.
To investigate the questions of dose proportionality and linear pharmacokinetics, an analysis of covariance (ANCOVA) was performed. Subjects were classified by dose level, and body weight was a covariate. The variables analyzed included β, Vdβ, dose-normalized C5, and logarithms of dose-normalized AUC0-last and dose-normalized AUC0-inf. The primary test of the hypothesis of invariance with dose was a test on dose-level effects with good power for a monotonic function of dose. In addition, the highest and lowest dose levels were compared within the framework of the ANCOVA

[2] = tested on: porcine coronary arteries (neointimal hyperplasia); test: porcine coronary stent model, zotarolimus-eluting BiodivYsio PC stent vs polymer only stent, 28 days (Example 3); assay type: in vivo; conditions: stent eluting zotarolimus from a polymer, porcine coronary artery
[3] = release of zotarolimus from 15 mm BiodivYsio drug delivery stents (Example 5); assay type: physicochemical; conditions: 15 mm BiodivYsio stents
Protocol: To load the stents with drug, a solution of zotarolimus in ethanol at a concentration of 50 mg/ml was prepared and dispensed into twelve vials. Twelve individual polymer-coated stents were placed on fixtures designed to hold the stent in a vertical position and the stents were immersed vertically in the drug solution for five minutes. The stents and fixtures were removed from the vials and excess drug solution was blotted away by contacting the stents with an absorbent material. The stents were then allowed to dry in air for 30 minutes in an inverted vertical position.
The stents were removed from the fixtures, and each stent was placed into 50/50 acetonitrile/phosphate buffer (pH 5.1, 2.0 ml) and sonicated for one hour. The stents were removed from the solution and solutions were assayed for concentration of drug, which allowed calculation of the amount of drug originally on the stents. This method was independently shown to remove at least 95% of the drug from the stent coating. On average, the stents included 120±9 micrograms of drug.
The drug-loaded stents were placed on the fixtures and placed into 0.01 M phosphate buffer (pH=6.0, 1.9 ml) in individual vials. These samples were placed onto a Eberbach shaker set at low speed to provide back-and-forth agitation. To avoid approaching drug saturation in the buffer, the stents were transferred periodically to fresh buffer vials at the following points: 15, 30, 45, 60, 120, 135, 150, 165, 180, 240, 390 minutes. The dissolution buffer vials were assayed by HPLC for the drug concentration at the end of the drug release period studied. The data, represented as % cumulative release of the drug as a function of time, is shown in tabular form below (Table 7): […]

[4] = single IV bolus 100 μg, mean ± SD
[5] = single IV bolus 300 μg, mean ± SD
[6] = single IV bolus 500 μg, mean ± SD
[7] = single IV bolus 700 μg, mean ± SD
[8] = single IV bolus 900 μg, mean ± SD

CO[C@H]1C[C@@H]2CC[C@@H](C)[C@@](O)(O2)C(=O)C(=O)N2CCCC[C@H]2C(=O)O[C@H]([C@H](C)C[C@@H]2CC[C@H](n3cnnn3)[C@H](OC)C2)CC(=O)[C@H](C)/C=C(\C)[C@@H](O)[C@@H](OC)C(=O)[C@H](C)C[C@H](C)/C=C/C=C/C=C/1C [zotarolimus]
dose proportionality of pharmacokinetics ([1]; IV, 100-900 μg dose range, with respect to C5 and AUC0-inf): dose-proportional | clearance ([1]; male, human, whole blood, range of means over single IV doses 100-900 μg, read-out: mean clearance): 48.3 to 59.2 mL/min | Vd ([1]; male, human, whole blood, range of means over single IV doses 100-900 μg, read-out: mean volume of distribution): 113 to 202 L | half-life ([1]; male, human, whole blood, range of means over the studied single IV doses 100-900 μg, read-out: mean half-life): 26 to 40.2 h | half-life ([1]; male, human, whole blood, single IV bolus 100 μg, harmonic mean ± pseudo-standard deviation, read-out: t1/2 (converted)): 26 ± 6 h | AUC(0-t) ([1]; male, human, whole blood, single IV bolus 100 μg, mean ± SD): 24.6 ± 5.89 ng·h/mL | AUC(0-inf) ([1]; male, human, whole blood, single IV bolus 100 μg, mean ± SD, read-out: AUC0-inf): 35.3 ± 6.15 ng·h/mL | clearance ([1]; male, human, whole blood, single IV bolus 100 μg, mean ± SD, read-out: CL (converted)): 48.3 mL/min | half-life ([1]; male, human, whole blood, single IV bolus 300 μg, harmonic mean ± pseudo-standard deviation, read-out: t1/2 (converted)): 35.9 ± 4.6 h | AUC(0-t) ([1]; male, human, whole blood, single IV bolus 300 μg, mean ± SD): 77.8 ± 13.7 ng·h/mL | AUC(0-inf) ([1]; male, human, whole blood, single IV bolus 300 μg, mean ± SD, read-out: AUC0-inf): 91.2 ± 14.7 ng·h/mL | clearance ([1]; male, human, whole blood, single IV bolus 300 μg, mean ± SD, read-out: CL (converted)): 56 mL/min | half-life ([1]; male, human, whole blood, single IV bolus 500 μg, harmonic mean ± pseudo-standard deviation, read-out: t1/2 (converted)): 40.2 ± 7.8 h | concentration at 5 min ([1]; male, human, whole blood, single IV bolus 500 μg, healthy males, blood, concentration at 5 minutes, mean ± SD (N = 7), read-out: C5): 56.5 ± 27.5 ng/mL | AUC(0-t) ([1]; male, human, whole blood, single IV bolus 500 μg, mean ± SD): 146 ± 32.4 ng·h/mL | AUC(0-inf) ([1]; male, human, whole blood, single IV bolus 500 μg, mean ± SD, read-out: AUC0-inf): 162 ± 29.6 ng·h/mL | clearance ([1]; male, human, whole blood, single IV bolus 500 μg, mean ± SD, read-out: CL (converted)): 52.8 mL/min | AUC(0-t) ([1]; male, human, whole blood, single IV bolus 700 μg, mean ± SD): 208 ± 19.4 ng·h/mL | AUC(0-inf) ([1]; male, human, whole blood, single IV bolus 700 μg, mean ± SD, read-out: AUC0-inf): 222 ± 19.6 ng·h/mL | AUC(0-t) ([1]; male, human, whole blood, single IV bolus 900 μg, mean ± SD): 241 ± 19.2 ng·h/mL | AUC(0-inf) ([1]; male, human, whole blood, single IV bolus 900 μg, mean ± SD, read-out: AUC0-inf): 254 ± 17.6 ng·h/mL | clearance ([1]; male, human, whole blood, single IV bolus 900 μg, mean ± SD, read-out: CL (converted)): 59.2 mL/min | β [1, 4]: 0.027 ± 0.006 h⁻¹ | AUC0-inf/Dose [1, 4]: 0.35 ± 0.06 ng·h/mL/µg | AUC0-last/Dose [1, 4]: 0.25 ± 0.06 ng·h/mL/µg | C5/Dose [1, 4]: 0.13 ± 0.03 ng/mL/µg | Vdβ [1, 4]: 113 ± 23 L | β [1, 5]: 0.019 ± 0.002 h⁻¹ | AUC0-inf/Dose [1, 5]: 0.30 ± 0.05 ng·h/mL/µg | AUC0-last/Dose [1, 5]: 0.26 ± 0.05 ng·h/mL/µg | C5/Dose [1, 5]: 0.12 ± 0.03 ng/mL/µg | Vdβ [1, 5]: 175 ± 23 L | β [1, 6]: 0.017 ± 0.003 h⁻¹ | C5 ([1]; single IV bolus 500 μg, healthy males, blood, concentration at 5 minutes, mean ± SD (N = 7)): 56.50 ± 27.54 ng/mL | AUC0-inf/Dose [1, 6]: 0.32 ± 0.06 ng·h/mL/µg | AUC0-last/Dose [1, 6]: 0.29 ± 0.06 ng·h/mL/µg | AUC(0-inf) [1, 6]: 162.44 ± 9.58 ng·h/mL | C5/Dose [1, 6]: 0.11 ± 0.05 ng/mL/µg | Vdβ [1, 6]: 190 ± 49 L | β [1, 7]: 0.020 ± 0.001 h⁻¹ | t1/2 ([1]; single IV bolus 700 μg, harmonic mean ± pseudo-standard deviation): 35.0 ± 2.4 h | AUC0-inf/Dose [1, 7]: 0.32 ± 0.03 ng·h/mL/µg | AUC0-last/Dose [1, 7]: 0.30 ± 0.03 ng·h/mL/µg | C5/Dose [1, 7]: 0.13 ± 0.01 ng/mL/µg | CL [1, 7]: 3.18 ± 0.28 L/h | Vdβ [1, 7]: 161 ± 15 L | β [1, 8]: 0.018 ± 0.002 h⁻¹ | t1/2 ([1]; single IV bolus 900 μg, harmonic mean ± pseudo-standard deviation): 39.0 ± 3.9 h | AUC0-inf/Dose [1, 8]: 0.28 ± 0.02 ng·h/mL/µg | AUC0-last/Dose [1, 8]: 0.27 ± 0.02 ng·h/mL/µg | C5/Dose [1, 8]: 0.12 ± 0.02 ng/mL/µg | Vdβ [1, 8]: 202 ± 29 L | serious adverse events ([1]; single IV doses 100-900 μg): no serious adverse events | tolerability ([1]; healthy males): without safety concerns | tolerability ([1]; healthy males, listed as Zotarolimus): generally well tolerated | most common treatment-emergent adverse events ([1]; single IV doses, reported by two or more subjects in any one treatment group): injection site reaction and pain | neointimal hyperplasia [2]: reduction in neointimal hyperplasia | % Cumulative Release of Drug ([3]; 0.01 M phosphate buffer pH 6.0, 15 min): 0.3% | % Cumulative Release of Drug ([3]; 0.01 M phosphate buffer pH 6.0, 30 min): 1.1% | % Cumulative Release of Drug ([3]; 0.01 M phosphate buffer pH 6.0, 45 min): 2.1% | % Cumulative Release of Drug ([3]; 0.01 M phosphate buffer pH 6.0, 60 min): 3.2% | % Cumulative Release of Drug ([3]; 0.01 M phosphate buffer pH 6.0, 120 min): 4.3% | % Cumulative Release of Drug ([3]; 0.01 M phosphate buffer pH 6.0, 135 min): 5.9% | % Cumulative Release of Drug ([3]; 0.01 M phosphate buffer pH 6.0, 150 min): 6.3% | % Cumulative Release of Drug ([3]; 0.01 M phosphate buffer pH 6.0, 165 min): 6.8% | % Cumulative Release of Drug ([3]; 0.01 M phosphate buffer pH 6.0, 180 min): 7.4% | % Cumulative Release of Drug ([3]; 0.01 M phosphate buffer pH 6.0, 240 min): 10.8% | % Cumulative Release of Drug ([3]; 0.01 M phosphate buffer pH 6.0, 390 min): 13.2%
